In US11633444B2, “Sporoderm-removed Ganoderma lucidum spore powder, granule and preparation method thereof” (ZHEJIANG SHOUXIANGU PHARMACEUTICAL COMPANY, LTD, priority 2017, dated 2023):
Counter-ions that a name gives are not always drawn.

Legend:
Type in all cases: in vivo
[1] = system: human lymphatic cancer (Ramos) transplanted tumor; assay: Zebrafish human lymphatic cancer (Ramos) transplanted tumor model; settings: 2 days at 35° C.; for Pixel of Sum of Fluorescence Intensities (mean ± SE): 5 μM
Text: Human lymphatic cancer (Ramos) cells were labeled with a red fluorescent dye (CM-Dil), and transplanted into zebrafish yolk sacs by microinjection, with about 200 cells being transplanted per zebrafish, so as to establish a zebrafish human lymphatic cancer transplanted tumor model.
Human lymphatic cancer (Ramos) cells were labeled with CM-Dil, and transplanted into 2 dpf wild type AB strain zebrafish yolk sacs by microinjection, with about 200 cells being transplanted per zebrafish, so as to establish a zebrafish human lymphatic cancer transplanted model; and the zebrafishes injected with the human lymphatic cancer cells were fed at 35° C. until 3 dpf.
(§1) Zebrafishes with better consistence in transplanted tumor cells were picked out under a microscope, randomly assigned to a 6-well plate, and were given in a water-dissolving administration manner respectively with the samples at concentrations respectively of 28, 83 and 250 μg/mL and the positive control drug vincristine at a concentration of 5 μM; and meanwhile a model control group was set, where there were 30 zebrafishes per well (concentration group), and the volume of each well was 5 mL. The zebrafishes in each experiment group were continually cultured at 35° C., and after 2 days, 10 zebrafishes were randomly selected from each experiment group to observe under a fluorescence microscope, and photographs of the 10 zebrafishes were taken and saved; and the photographs were analyzed using Nikon NIS-Elements D 3.10 Advanced image processing software to calculate the fluorescence intensities of cancer cells. The inhibitory effect of the sample on the zebrafish lymphatic cancer (Ramos) transplanted tumor was evaluated with the fluorescence intensities, and the tumor inhibition effect was calculated using the following equation.
A concentration-effect curve was drawn according to a growth inhibition effect on the transplanted tumor; statistical analysis was performed by variance analysis and Dunnett's T-test, where p<0.05 was considered as a significant difference; such that a representative experimental map was provided.

[2] = system: human lung adenocarcinoma (A549) transplanted tumor; assay: Zebrafish human lung adenocarcinoma (A549) transplanted tumor model; settings: A549, 50 μM, 2 days at 35° C., n = 10
Text: Human lung adenocarcinoma (A549) cells were labeled with a red fluorescent dye (CM-Dil), and transplanted into zebrafish yolk sacs by microinjection, with about 200 cells being transplanted per zebrafish, so as to establish a zebrafish human lung adenocarcinoma transplanted tumor model.
Human lung adenocarcinoma (A549) cells were labeled with CM-Dil, and transplanted into 2 dpf wild type AB strain zebrafish yolk sacs by microinjection, with about 200 cells being transplanted per zebrafish, so as to establish a zebrafish human lung adenocarcinoma (A549) transplanted model; and the zebrafishes injected with the A549 cells were fed at 35° C. until 3 dpf.
as §1, with “drug cis-platinum” for “drug vincristine”, “of 50” for “of 5”, “experiment (concentration)” for “experiment”, “zebrafish lung adenocarcinoma (A549)” for “zebrafish lymphatic cancer (Ramos)”, “equation. […]” for “equation.”

[3] = system: human gastric cancer (SGC-7901) transplanted tumor; assay: Zebrafish human gastric cancer (SGC-7901) transplanted tumor model; settings: SGC-7901, 50 μM, 2 days at 35° C., n = 10
Text: Human gastric cancer (SGC-7901) cells were labeled with a red fluorescent dye (CM-Dil), and transplanted into zebrafish yolk sacs by microinjection, with about 200 cells being transplanted per zebrafish, so as to establish a zebrafish human gastric cancer transplanted tumor model.
Human gastric cancer (SGC-7901) cells were labeled with CM-Dil, and transplanted into 2 dpf wild type AB strain zebrafish yolk sacs by microinjection, with about 200 cells being transplanted per zebrafish, so as to establish a zebrafish human gastric cancer (SGC-7901) transplanted model; and the zebrafishes injected with the SGC-7901 cells were fed at 35° C. until 3 dpf.
Zebrafishes with better consistence in transplanted tumor cells were picked out under a microscope, randomly assigned to a 6-well plate, and were given in a water-dissolving administration manner respectively with the samples at concentrations respectively of 28, 83 and 250 μg/mL and the positive control drug cis-platinum at a concentration of 50 μM; and meanwhile a model control group was set, where there were 30 zebrafishes per well (concentration group), and the volume of each well was 5 mL. The zebrafishes in each experiment (concentration) group were continually cultured at 35° C., and after 2 days, 10 zebrafishes were randomly selected from each experiment (concentration) group to observe under a fluorescence microscope, and photographs of the 10 zebrafishes were taken and saved; and the photographs were analyzed using Nikon NIS-Elements D 3.10 Advanced image processing software to calculate the fluorescence intensities of cancer cells. The inhibitory effects of samples on the zebrafish gastric cancer (SGC-7901) transplanted tumor were respectively evaluated with the fluorescence intensities, and the tumor inhibition effect was calculated using the following equation. […]

Structure (SMILES)	Pixel of Sum of Fluorescence Intensities (mean ± SE) ([1]; n = 10) [pixels]	Pixel of Sum of Fluorescence Intensities (mean ± SE) ([1]; n = 10, listed as vincristine)	inhibition at 5 µM ([1]; Danio rerio, 48 h, n = 10, read-out: Inhibition Effect) [%]	Inhibition Effect [2] [%]	Pixel of Sum of Fluorescence Intensities (mean ± SE) [2] [pixels]	Pixel of Sum of Fluorescence Intensities (mean ± SE) ([2]; listed as cis-platinum)	Inhibition Effect [3] [%]	Pixel of Sum of Fluorescence Intensities (mean ± SE) [3] [pixels]	Pixel of Sum of Fluorescence Intensities (mean ± SE) ([3]; listed as cis-platinum)
CC[C@]1(O)C[C@H]2CN(CCc3c([nH]c4ccccc34)[C@@](C(=O)OC)(c3cc4c(cc3OC)N(C=O)[C@H]3[C@@](O)(C(=O)OC)[C@H](OC(C)=O)[C@]5(CC)C=CCN6CC[C@]43[C@@H]65)C2)C1 [Vincristine, Vincristine sulfate]	153919 ± 13691	153,919 pixels	33	–	–	–	–	–	–
N.N.[Cl][Pt][Cl] [Cis-platinum]	–	–	–	32	137287 ± 7835	137,287 pixels	36	237655 ± 12361	237,655 pixels
